The record followed here is patent US11236354B2, “Glyphosate-n-acetyltransferase (GLYAT) sequences and methods of use” (PIONEER HI-BRED INTERNATIONAL, INC., priority 2013, dated 2022).

The target of the assay is GLYAT variant SEQ ID NO:4 (derived from SEQ ID NO:1 and 2) (Bacillus licheniformis, UniProt Q65LG7, D131E/E14D/E65Q/E67K/E68K/G37R/G38S/I132T/I135A/I15L/I19V/I53V/I91V/K101R/K144R/K58Q/L105M/L26I/L36T/L97I/M75V/R47G/R92K/T33S/T89S/V114A/Y130F/Y31F/Y45F). Briefly: Substrate saturation kinetic analysis of purified GLYAT. To be noted: pH 7.0.

Protocol: Cells were lysed with BPER (Pierce) containing 1 mM dithiothreitol, 0.2 mg/ml lysozyme, 2 mg/ml protease inhibitor cocktail (Sigma bacterial cell cocktail, P8465) and endonuclease. Lysate supernatants were passed through a column of NHS-activated Agarose (Thermo, #26197) derivatized with coenzyme A. Columns were washed with 25 mM Hepes, pH 7, containing progressively higher concentrations of KCl, then eluted with 25 mM Hepes, 100 mM KCl, 10% ethylene glycol and 1 mM acetyl CoA. Purity as evaluated by polyacrylamide gel electrophoresis was deemed consistently high enough to be assumed to be 100%. Protein concentration was determined with the Bradford assay using a large-scale lot of produced GLYAT protein as standard.
Kinetic parameters for various substrates were obtained using a range of seven substrate concentrations plus a blank containing none of the varied substrate. The non-varied substrate was present at a saturating concentration. Six-microliter aliquots of 50-fold concentrated stock solutions of the varied substrate were placed in a 96-well assay plate (Greiner BioOne UV-Star). Reactions were started with the addition of 294 ul of 25 mM Hepes, pH 7.0, 100 mM KCL, 10% ethylene glycol, the non-varied substrate and 10 to 200 nM enzyme. Absorbance was monitored for one minute with a Spectramax 384 Plus plate reader (Molecular Devices). If the amino acid present at position 30 (29 if alanine is absent at position 2) was cysteine, absorbance was monitored at 235 nm, which directly detects cleavage of the sulfoester bond of acetyl CoA. If the amino acid present at position 30 (29 if alanine is absent at position 2) was isoleucine, 0.5 mM 5,5′-dithiobis-(2-nitrobenzoic acid), which reacts with the coenzyme A thiol generated in the enzyme catalyzed reaction, was included in the reaction mix and absorbance was monitored at 412 nm. Initial rates were processed by the Softmax software to obtain kinetic parameters, using the double-reciprocal transformation.

Consider `N[C@@H](CC(=O)O)C(=O)O` [aspartate], for which the “Asp as % of glyph (kcat/KM asp / kcat/KM glyph)” value was 0.210%.
